According to article PMC5130005, “Indolin-2-one compounds targeting thioredoxin reductase as potential anticancer drug leads” (Oncotarget, 2016):

How the values were obtained:
Format in all cases: cell-based, human
[1] = test system: Trx-ASK1 complex in ASK1-overexpressing HCT 116 cells; test: Trx-ASK1 interaction by Trx immunoprecipitation
Procedure: HCT 116 cells were seeded in 60 mm plates and upon reaching 40% confluency, they were transfected with 1.5 μg of pCMV-SPORT6-ASK1 per plate. When the transfected cells reached ~70% confluency, they were treated with DMSO or compound 4 at indicated concentrations for 4 h and lysates were collected for immunoprecipitation set-up. For each lysate sample, a volume containing 1 mg of protein was mixed with 1.5 μg of anti-Trx antibody coupled to 20 μl of protein G-sepharose (GE Healthcare) and tumbled at 4°C for 2 h. The G-sepharose beads were washed three times in a cold washing buffer containing 20 mM Tris (pH 7.5), 0.5 M NaCl and 1 mM EGTA and once in a buffer containing 50 mM Tris (pH 7.5). The immunoprecipitated proteins were denatured in SDS sample buffer containing 5% β-mercaptoethanol and subjected to SDS-PAGE and Western blotting.

HCT 116 cells [2] = test: total cellular thiols; details: 20-50 μM
Trx in HCT 116 cells = test: Trx redox state in cells (IAA alkylation, native PAGE); details: 40 μM; 4, 8 and 14 h
Procedure: The redox state of cellular Trx was assessed as previously described. HCT 116 cells were seeded in 60 mm plates and allowed to grow to 70% confluency. Compounds 4 or 5 were then added to the cells for 4, 8 or 14 h. Lysates were collected in lysis buffer (50 mM Tris-HCl pH 8.3, 2 mM EDTA, 6 M guanidine HCl, 0.5% Triton-X, 50 mM IAA). The lysates were incubated in the dark for 30 min at room temperature, sonicated briefly, and finally passed through a MicroSpin G-25 column (GE Healthcare) to remove guanidine and unreacted IAA. The desalted lysates were subjected to native PAGE, followed by transfer of separated proteins onto nitrocellulose membranes for Western blot analysis using anti-Trx antibody.

HCT 116 cells [3] = test: ROS determination (carboxy-H2DCFDA, DCF fluorescence); details: 50 μM, 3 h, versus DMSO control
Procedure: Oxidative stress was assessed through estimating the level of ROS using the H2DCFDA assay with modifications. Briefly, HCT 116 cells were seeded in 6-well plates and incubated for 24-48 h at 37°C till 70-80% confluency. They were treated with H2O2 (200 μM) or compounds 4 and 5 (20, 30, 40 or 50 μM) for 3 h. Following treatment, cells were washed with PBS and incubated with 10 μM carboxy-H2DCFDA in PBS at 37°C in the dark for 45 min to allow reaction between taken up H2DCF and ROS. The cells were collected, washed with cold PBS, pelleted, resuspended in 200 μl of PBS and transferred to wells in a 96-well black fluorescence plate. The fluorescence intensities were measured at an excitation wavelength of 485 nm and an emission wavelength of 530 nm using a Tecan Infinite M200 Pro microplate reader. The results were expressed as a percentage of fluorescence intensities measured in drug-treated cells over those produced in DMSO-treated cells.

SMILES | amount of ASK1 bound to Trx1 [1] | total cellular thiols (HCT 116 cells [2]) | Trx oxidation in HCT 116 cells (Trx in HCT 116 cells) | DCF fluorescence (cellular oxidative stress) (HCT 116 cells [3])
CCCCN1C(=O)/C(=C/C(C)=O)c2ccccc21 [Compound 4] | dose-dependent decrease | depletion of total cellular thiols in a dose-dependent manner | time-dependent oxidation of Trx | markedly increased DCF fluorescence
CC(=O)/C=C1/C(=O)N(Cc2ccccc2)c2ccccc21 [Compound 5] |  | depletion of total cellular thiols in a dose-dependent manner | time-dependent oxidation of Trx | markedly increased DCF fluorescence
